Results published in the kinase profiling compilation of Christmann-Franck et al. (2016).
Several values for one entry are separate records, joined by “and”; a condition that tells them apart may be missing. Equal values may be shown once.

Columns and labels:
Test in all cases: radiometric filter-binding kinase assay, Kinase HotSpot
Conditions in all cases: compound 0.5 µM; ATP 10 µM
NEK7 (human) = NEK7 (human) (UniProt Q8TDX7)
NEK4 (human) = NEK4 (human) (UniProt P51957)
IKBKE (human) = IKBKE (human) (UniProt Q14164)
MAPKAPK3 (human) = MAPKAPK3 (human) (UniProt Q16644)
BRSK2 (human) = BRSK2 (human) (UniProt Q8IWQ3)
TSSK1B (human) = TSSK1B (human) (UniProt Q9BXA7)
MAP4K4 (human) = MAP4K4 (human) (UniProt O95819)
MAPK1 (human) = MAPK1 (human) (UniProt P28482)
RPS6KA3 KD1 KD2 (human) = RPS6KA3 KD1 KD2 (human) (UniProt P51812)
PAK1 (human) = PAK1 (human) (UniProt Q13153)
CHEK1 (human) = CHEK1 (human) (UniProt O14757)
Chain of CHEK1 (human) (O14757 whole entry, looked up): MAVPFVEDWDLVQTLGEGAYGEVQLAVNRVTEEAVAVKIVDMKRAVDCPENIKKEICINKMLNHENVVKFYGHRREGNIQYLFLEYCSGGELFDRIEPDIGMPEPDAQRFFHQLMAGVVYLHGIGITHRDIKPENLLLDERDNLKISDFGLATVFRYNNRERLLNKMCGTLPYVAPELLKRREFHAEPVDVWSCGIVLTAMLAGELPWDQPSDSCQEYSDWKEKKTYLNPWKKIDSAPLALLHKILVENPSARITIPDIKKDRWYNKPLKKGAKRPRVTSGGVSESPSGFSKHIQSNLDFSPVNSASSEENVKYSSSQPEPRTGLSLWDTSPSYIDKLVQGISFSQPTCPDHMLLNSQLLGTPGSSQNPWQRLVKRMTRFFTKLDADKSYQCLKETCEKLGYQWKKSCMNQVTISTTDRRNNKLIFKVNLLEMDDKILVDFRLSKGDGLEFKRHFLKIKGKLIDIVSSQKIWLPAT

TBK1 (human) = TBK1 (human) (UniProt Q9UHD2)
ZAP70 (human) = ZAP70 (human) (UniProt P43403)
WEE1 (human) = WEE1 (human) (UniProt P30291)
PBK (human) = PBK (human) (UniProt Q96KB5)
TGFBR2 (human) = TGFBR2 (human) (UniProt P37173)
NEK1 (human) = NEK1 (human) (UniProt Q96PY6)
NEK3 (human) = NEK3 (human) (UniProt P51956)
MAP3K7 TAB1 (human) = MAP3K7 TAB1 (human) (UniProt O43318+Q15750)
Chain of MAP3K7 TAB1 (human) (O43318 whole entry, looked up): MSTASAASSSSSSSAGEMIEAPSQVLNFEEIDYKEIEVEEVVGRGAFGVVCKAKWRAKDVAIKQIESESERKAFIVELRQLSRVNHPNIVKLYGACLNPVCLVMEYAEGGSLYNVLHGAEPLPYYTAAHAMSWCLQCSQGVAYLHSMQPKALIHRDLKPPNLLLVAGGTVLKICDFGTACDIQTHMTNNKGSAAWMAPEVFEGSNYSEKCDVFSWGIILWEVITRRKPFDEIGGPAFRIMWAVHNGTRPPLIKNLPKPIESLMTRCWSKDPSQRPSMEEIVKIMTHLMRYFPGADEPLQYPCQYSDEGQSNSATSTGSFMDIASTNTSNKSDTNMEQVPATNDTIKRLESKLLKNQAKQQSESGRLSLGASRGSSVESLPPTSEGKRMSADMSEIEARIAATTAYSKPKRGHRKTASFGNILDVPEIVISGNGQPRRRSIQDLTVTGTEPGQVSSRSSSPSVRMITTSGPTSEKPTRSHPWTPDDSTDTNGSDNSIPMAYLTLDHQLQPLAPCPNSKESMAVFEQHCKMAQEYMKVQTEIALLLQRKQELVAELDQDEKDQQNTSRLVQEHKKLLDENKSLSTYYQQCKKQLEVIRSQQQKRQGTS
Chain of MAP3K7 TAB1 (human) (Q15750 whole entry, looked up): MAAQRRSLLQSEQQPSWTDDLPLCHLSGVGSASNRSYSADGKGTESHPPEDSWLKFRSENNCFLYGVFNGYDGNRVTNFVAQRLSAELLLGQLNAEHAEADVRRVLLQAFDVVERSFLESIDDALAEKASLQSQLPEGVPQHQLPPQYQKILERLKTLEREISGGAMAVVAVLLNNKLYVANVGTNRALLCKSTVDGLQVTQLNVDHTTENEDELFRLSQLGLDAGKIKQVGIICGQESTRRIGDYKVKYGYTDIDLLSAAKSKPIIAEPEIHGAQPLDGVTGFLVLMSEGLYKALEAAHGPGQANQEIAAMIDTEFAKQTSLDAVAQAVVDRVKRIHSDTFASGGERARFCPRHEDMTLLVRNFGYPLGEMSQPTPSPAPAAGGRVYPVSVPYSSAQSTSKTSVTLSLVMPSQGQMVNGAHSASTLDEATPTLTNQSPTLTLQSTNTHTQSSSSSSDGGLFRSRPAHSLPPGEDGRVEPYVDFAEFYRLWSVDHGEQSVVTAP

LYN (human) = LYN (human) (UniProt P07948)
Chain of LYN (human) (P07948 whole entry, looked up): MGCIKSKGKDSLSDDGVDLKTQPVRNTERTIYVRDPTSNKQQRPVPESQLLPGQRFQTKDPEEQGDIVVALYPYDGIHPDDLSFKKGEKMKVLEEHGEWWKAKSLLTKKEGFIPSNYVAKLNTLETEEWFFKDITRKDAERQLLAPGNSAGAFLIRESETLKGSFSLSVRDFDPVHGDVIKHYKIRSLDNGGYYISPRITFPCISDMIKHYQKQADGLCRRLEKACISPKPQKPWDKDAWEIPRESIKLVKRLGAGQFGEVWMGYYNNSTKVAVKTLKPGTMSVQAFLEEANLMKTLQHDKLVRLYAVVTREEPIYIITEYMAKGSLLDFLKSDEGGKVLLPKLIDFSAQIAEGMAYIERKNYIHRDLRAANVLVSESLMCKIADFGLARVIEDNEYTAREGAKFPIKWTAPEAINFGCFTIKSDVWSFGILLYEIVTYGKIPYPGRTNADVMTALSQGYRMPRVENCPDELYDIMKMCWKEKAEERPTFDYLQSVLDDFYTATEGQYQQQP

PRKCB2 (human) = PRKCB2 (human) (UniProt P05771)
Chain of PRKCB2 (human) (P05771 whole entry, looked up): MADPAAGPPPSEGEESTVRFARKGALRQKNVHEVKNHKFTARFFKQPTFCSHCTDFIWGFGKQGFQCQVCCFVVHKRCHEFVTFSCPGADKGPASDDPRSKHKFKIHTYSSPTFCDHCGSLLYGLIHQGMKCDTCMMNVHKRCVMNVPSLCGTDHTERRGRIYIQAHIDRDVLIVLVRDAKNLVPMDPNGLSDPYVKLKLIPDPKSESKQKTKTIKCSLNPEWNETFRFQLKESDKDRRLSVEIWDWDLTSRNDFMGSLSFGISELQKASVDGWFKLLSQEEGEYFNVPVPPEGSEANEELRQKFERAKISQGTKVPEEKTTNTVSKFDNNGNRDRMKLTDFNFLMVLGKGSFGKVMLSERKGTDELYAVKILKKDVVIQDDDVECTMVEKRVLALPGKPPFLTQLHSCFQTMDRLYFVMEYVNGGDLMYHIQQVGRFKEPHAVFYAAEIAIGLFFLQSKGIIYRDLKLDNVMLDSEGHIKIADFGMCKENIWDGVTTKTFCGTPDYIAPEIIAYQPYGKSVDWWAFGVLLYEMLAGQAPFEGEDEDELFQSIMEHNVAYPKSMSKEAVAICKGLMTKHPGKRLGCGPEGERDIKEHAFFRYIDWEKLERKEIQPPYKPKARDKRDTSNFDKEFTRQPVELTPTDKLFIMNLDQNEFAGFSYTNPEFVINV

IRAK1 (human) = IRAK1 (human) (UniProt P51617)
CAMK2D (human) = CAMK2D (human) (UniProt Q13557)
PRKD3 (human) = PRKD3 (human) (UniProt O94806)
CLK4 (human) = CLK4 (human) (UniProt Q9HAZ1)
ADRBK1 (human) = ADRBK1 (human) (UniProt P25098)
CDK4 CCND1 (human) = CDK4 CCND1 (human) (UniProt P24385+P11802)
MARK4 (human) = MARK4 (human) (UniProt Q96L34)
IRAK4 (human) = IRAK4 (human) (UniProt Q9NWZ3)
Chain of IRAK4 (human) (Q9NWZ3 whole entry, looked up): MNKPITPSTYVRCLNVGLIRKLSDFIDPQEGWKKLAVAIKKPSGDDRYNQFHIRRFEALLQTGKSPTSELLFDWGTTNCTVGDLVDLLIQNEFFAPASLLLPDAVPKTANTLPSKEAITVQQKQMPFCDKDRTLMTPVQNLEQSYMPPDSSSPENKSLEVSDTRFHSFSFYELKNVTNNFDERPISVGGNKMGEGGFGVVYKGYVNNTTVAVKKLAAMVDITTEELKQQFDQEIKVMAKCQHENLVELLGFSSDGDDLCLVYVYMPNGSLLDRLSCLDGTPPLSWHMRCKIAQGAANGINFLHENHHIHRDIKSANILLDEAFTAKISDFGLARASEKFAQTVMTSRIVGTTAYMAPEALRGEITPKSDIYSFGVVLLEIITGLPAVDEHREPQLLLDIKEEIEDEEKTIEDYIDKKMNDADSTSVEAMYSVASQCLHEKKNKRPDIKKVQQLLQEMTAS

WNK2 (human) = WNK2 (human) (UniProt Q9Y3S1)
FYN (human) = FYN (human) (UniProt P06241)
GSK3B (human) = GSK3B (human) (UniProt P49841)
PIM3 (human) = PIM3 (human) (UniProt Q86V86)
TXK (human) = TXK (human) (UniProt P42681)
DAPK1 (human) = DAPK1 (human) (UniProt P53355)
SGK2 (human) = SGK2 (human) (UniProt Q9HBY8)
VRK1 (human) = VRK1 (human) (UniProt Q99986)
MARK3 (human) = MARK3 (human) (UniProt P27448)
PDGFRA (human) = PDGFRA (human) (UniProt P16234)
ALK (human) = ALK (human) (UniProt Q9UM73)
Chain of ALK (human) (Q9UM73 whole entry, looked up): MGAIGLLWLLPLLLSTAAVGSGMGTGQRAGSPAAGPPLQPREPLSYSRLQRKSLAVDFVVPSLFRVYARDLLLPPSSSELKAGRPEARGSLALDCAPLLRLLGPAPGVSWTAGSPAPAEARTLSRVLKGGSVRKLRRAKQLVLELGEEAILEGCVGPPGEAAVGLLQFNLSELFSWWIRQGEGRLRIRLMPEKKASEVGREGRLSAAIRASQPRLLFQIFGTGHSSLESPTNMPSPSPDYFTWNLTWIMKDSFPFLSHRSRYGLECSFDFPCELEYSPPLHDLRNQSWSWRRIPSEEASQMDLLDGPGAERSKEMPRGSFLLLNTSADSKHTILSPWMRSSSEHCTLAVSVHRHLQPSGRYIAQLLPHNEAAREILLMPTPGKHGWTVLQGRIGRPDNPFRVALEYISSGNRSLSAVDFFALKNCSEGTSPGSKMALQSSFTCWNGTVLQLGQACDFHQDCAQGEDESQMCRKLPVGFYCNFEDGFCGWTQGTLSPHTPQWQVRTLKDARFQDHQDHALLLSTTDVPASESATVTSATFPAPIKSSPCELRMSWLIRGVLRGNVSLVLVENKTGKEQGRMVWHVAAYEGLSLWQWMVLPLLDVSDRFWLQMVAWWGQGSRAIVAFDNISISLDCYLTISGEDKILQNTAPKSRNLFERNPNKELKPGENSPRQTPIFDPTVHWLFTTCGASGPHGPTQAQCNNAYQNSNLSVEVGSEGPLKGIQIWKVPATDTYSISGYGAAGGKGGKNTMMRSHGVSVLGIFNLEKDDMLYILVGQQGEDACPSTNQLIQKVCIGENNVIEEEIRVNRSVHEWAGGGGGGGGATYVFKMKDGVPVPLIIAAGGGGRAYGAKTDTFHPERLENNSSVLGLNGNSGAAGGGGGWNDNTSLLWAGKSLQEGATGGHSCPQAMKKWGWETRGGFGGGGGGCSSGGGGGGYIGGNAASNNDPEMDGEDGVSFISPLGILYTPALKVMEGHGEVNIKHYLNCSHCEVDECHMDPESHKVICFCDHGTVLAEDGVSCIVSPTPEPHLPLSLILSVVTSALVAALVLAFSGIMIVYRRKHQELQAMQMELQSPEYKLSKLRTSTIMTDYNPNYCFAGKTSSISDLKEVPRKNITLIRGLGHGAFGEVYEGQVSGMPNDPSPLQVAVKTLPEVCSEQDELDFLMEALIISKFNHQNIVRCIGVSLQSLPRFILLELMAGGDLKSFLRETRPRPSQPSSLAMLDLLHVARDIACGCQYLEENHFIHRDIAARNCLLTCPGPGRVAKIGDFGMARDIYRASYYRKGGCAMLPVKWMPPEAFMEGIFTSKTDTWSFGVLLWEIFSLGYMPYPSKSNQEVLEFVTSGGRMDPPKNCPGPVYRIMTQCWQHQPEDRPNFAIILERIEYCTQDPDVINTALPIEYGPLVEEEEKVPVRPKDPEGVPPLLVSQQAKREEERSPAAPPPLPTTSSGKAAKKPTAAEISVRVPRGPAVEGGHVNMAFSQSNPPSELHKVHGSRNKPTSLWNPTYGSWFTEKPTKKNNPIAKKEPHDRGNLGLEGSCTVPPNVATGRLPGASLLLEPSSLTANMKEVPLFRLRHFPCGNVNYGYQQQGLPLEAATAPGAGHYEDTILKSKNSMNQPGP

NEK2 (human) = NEK2 (human) (UniProt P51955)
SRC (human) = SRC (human) (UniProt P12931)

## COc1cc2ncnc(Nc3ccc(F)c(Cl)c3)c2cc1OCCCN1CCOCC1
NEK7 (human)
  residual activity: 96.9%
NEK4 (human)
  residual activity: 103%
IKBKE (human)
  residual activity: 89.9%
MAPKAPK3 (human)
  residual activity: 99.6%
BRSK2 (human)
  residual activity: 103%
TSSK1B (human)
  residual activity: 90%
MAP4K4 (human)
  residual activity: 97.8%
MAPK1 (human)
  residual activity: 103%
RPS6KA3 KD1 KD2 (human)
  residual activity: 100%
PAK1 (human)
  residual activity: 104%
CHEK1 (human)
  residual activity: 95.3%
TBK1 (human)
  residual activity: 83.1%
ZAP70 (human)
  residual activity: 96.5%
WEE1 (human)
  residual activity: 93.8%
PBK (human)
  residual activity: 102%
TGFBR2 (human)
  residual activity: 93.8%
NEK1 (human)
  residual activity: 90.4%
NEK3 (human)
  residual activity: 94.4%
MAP3K7 TAB1 (human)
  residual activity: 91.3%
LYN (human)
  residual activity: 57.1% and 67.8%
PRKCB2 (human)
  residual activity: 100%
IRAK1 (human)
  residual activity: 57.6%
CAMK2D (human)
  residual activity: 92.4%
PRKD3 (human)
  residual activity: 76.3%
CLK4 (human)
  residual activity: 107%
ADRBK1 (human)
  residual activity: 93.3%
CDK4 CCND1 (human)
  residual activity: 94.3%
MARK4 (human)
  residual activity: 94.2%
IRAK4 (human)
  residual activity: 78.8%
WNK2 (human)
  residual activity: 97.2%
FYN (human)
  residual activity: 92.2%
GSK3B (human)
  residual activity: 100%
PIM3 (human)
  residual activity: 74.6%
TXK (human)
  residual activity: 83.2%
DAPK1 (human)
  residual activity: 109%
SGK2 (human)
  residual activity: 117%
VRK1 (human)
  residual activity: 99.3%
MARK3 (human)
  residual activity: 94.5%
PDGFRA (human)
  residual activity: 97%
ALK (human)
  residual activity: 98.8%
NEK2 (human)
  residual activity: 98.4%

## Cc1ccc(NC(=O)c2ccc(CN3CCN(C)CC3)cc2)cc1Nc1nc(-c2cccnc2)cs1
NEK7 (human)
  residual activity: 96.3%
NEK4 (human)
  residual activity: 92.4%
IKBKE (human)
  residual activity: 97.2%
MAPKAPK3 (human)
  residual activity: 97.9%
BRSK2 (human)
  residual activity: 99.9%
TSSK1B (human)
  residual activity: 100%
MAP4K4 (human)
  residual activity: 72.2%
MAPK1 (human)
  residual activity: 91.6%
RPS6KA3 KD1 KD2 (human)
  residual activity: 93.6%
PAK1 (human)
  residual activity: 104%
CHEK1 (human)
  residual activity: 110%
TBK1 (human)
  residual activity: 97%
ZAP70 (human)
  residual activity: 112%
WEE1 (human)
  residual activity: 97%
PBK (human)
  residual activity: 99.6%
TGFBR2 (human)
  residual activity: 101%
NEK1 (human)
  residual activity: 116%
NEK3 (human)
  residual activity: 99.4%
MAP3K7 TAB1 (human)
  residual activity: 98.6%
LYN (human)
  residual activity: 16.2% and 18.7%
PRKCB2 (human)
  residual activity: 95.9%
SRC (human)
  residual activity: 80%
IRAK1 (human)
  residual activity: 104%
CAMK2D (human)
  residual activity: 106%
PRKD3 (human)
  residual activity: 92.7%
CLK4 (human)
  residual activity: 93.3%
ADRBK1 (human)
  residual activity: 121%
CDK4 CCND1 (human)
  residual activity: 94.1%
MARK4 (human)
  residual activity: 101%
IRAK4 (human)
  residual activity: 97.4%
WNK2 (human)
  residual activity: 99.2%
FYN (human)
  residual activity: 37.3%
PIM3 (human)
  residual activity: 73.7%
TXK (human)
  residual activity: 101%
DAPK1 (human)
  residual activity: 97.5%
SGK2 (human)
  residual activity: 106%
VRK1 (human)
  residual activity: 97.4%
MARK3 (human)
  residual activity: 100%
PDGFRA (human)
  residual activity: 1.64%
ALK (human)
  residual activity: 103%
NEK2 (human)
  residual activity: 96.7%
